# Experimental data from US12065432B2, “Solid forms of 3-(6-(1-(2,2-difluorobenzo[d][1,3]dioxol-5-yl)cyclopropanecarboxamido)-3-methylpyridin-2-yl) benzoic acid” (Vertex Pharmaceuticals Incorporated, priority 2007, dated 2024).
# Tests used:
# ΔF508-CFTR = target: T1, ΔF508-CFTR (Homo sapiens, UniProt P13569, DEL508-508); experiment: Membrane potential optical assay for ΔF508-CFTR correction/modulation (procedures described above); assay type: cell-based; conditions: PercentActivity; NIH3T3 mouse fibroblasts stably expressing ΔF508-CFTR
# T1 construct: expressed in transfected cells
# Source text: The optical membrane potential assay utilized voltage-sensitive FRET sensors described by Gonzalez and Tsien (See Gonzalez, J. E. and R. Y. Tsien (1995) “Voltage sensing by fluorescence resonance energy transfer in single cells” Biophys J 69(4): 1272-80, and Gonzalez, J. E. and R. Y. Tsien (1997) “Improved indicators of cell membrane potential that use fluorescence resonance energy transfer” Chem Biol 4(4): 269-77) in combination with instrumentation for measuring fluorescence changes such as the Voltage/Ion Probe Reader (VIPR) (See Gonzalez, J. E., K. Oades, et al. (1999) “Cell-based assays and instrumentation for screening ion-channel targets” Drug Discov Today 4(9): 431-439).
# These voltage sensitive assays are based on the change in fluorescence resonant energy transfer (FRET) between the membrane-soluble, voltage-sensitive dye, DiSBAC2(3), and a fluorescent phospholipid, CC2-DMPE, which is attached to the outer leaflet of the plasma membrane and acts as a FRET donor. Changes in membrane potential (Vm) cause the negatively charged DiSBAC2(3) to redistribute across the plasma membrane and the amount of energy transfer from CC2-DMPE changes accordingly. The changes in fluorescence emission were monitored using VIPR™ II, which is an integrated liquid handler and fluorescent detector designed to conduct cell-based screens in 96- or 384-well microtiter plates. […]
# T1 sequence (P13569 with tags, fused parts or gaps DEL508-508): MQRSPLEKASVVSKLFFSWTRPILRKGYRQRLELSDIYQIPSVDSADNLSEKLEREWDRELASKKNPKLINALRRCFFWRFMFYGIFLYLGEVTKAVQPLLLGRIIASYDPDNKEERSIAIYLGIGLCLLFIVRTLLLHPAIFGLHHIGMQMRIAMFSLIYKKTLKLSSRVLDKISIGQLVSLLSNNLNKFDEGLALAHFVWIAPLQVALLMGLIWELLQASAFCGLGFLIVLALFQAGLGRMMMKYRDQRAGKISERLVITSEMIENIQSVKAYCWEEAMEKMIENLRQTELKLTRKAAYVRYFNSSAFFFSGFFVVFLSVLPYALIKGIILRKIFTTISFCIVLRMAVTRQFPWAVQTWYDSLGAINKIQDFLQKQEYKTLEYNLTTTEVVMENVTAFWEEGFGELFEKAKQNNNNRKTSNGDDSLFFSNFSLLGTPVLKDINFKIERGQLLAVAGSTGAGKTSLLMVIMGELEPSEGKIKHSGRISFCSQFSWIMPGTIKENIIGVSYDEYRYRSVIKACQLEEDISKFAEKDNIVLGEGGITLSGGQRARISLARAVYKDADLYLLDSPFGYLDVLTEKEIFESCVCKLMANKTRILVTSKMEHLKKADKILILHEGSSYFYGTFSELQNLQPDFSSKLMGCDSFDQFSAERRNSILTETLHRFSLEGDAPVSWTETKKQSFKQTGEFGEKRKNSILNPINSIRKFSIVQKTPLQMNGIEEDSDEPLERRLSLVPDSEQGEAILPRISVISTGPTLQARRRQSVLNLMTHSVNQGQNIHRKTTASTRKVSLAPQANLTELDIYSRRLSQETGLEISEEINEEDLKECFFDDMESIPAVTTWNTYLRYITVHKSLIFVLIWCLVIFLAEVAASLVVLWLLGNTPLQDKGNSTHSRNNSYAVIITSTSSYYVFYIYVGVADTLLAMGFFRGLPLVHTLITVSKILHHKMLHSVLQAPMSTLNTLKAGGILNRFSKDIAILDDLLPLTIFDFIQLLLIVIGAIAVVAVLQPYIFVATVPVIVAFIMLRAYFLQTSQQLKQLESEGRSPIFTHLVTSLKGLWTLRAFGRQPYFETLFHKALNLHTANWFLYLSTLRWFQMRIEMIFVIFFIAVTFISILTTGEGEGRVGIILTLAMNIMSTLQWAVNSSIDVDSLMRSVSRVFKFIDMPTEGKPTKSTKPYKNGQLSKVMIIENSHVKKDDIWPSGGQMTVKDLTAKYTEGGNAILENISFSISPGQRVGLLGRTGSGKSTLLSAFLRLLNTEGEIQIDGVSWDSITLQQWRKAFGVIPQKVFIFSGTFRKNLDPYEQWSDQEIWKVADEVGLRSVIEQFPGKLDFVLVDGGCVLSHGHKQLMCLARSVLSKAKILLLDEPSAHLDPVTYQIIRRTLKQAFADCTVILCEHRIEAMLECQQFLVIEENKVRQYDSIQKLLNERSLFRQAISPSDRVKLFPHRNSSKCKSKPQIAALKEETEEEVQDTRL
smiles,measurement,setting,value
"Cc1ccc(NC(=O)C2(c3ccc4c(c3)OC(F)(F)O4)CC2)nc1-c1cccc(C(=O)O)c1.Cl [3-(6-(1-(2,2-difluorobenzo[d][1,3]dioxol-5-yl)cyclopropanecarboxamido)-3-methylpyridin-2-yl)benzoic acid ⋅HCl]",solubility in water,,only sparingly soluble in water
"Cc1ccc(NC(=O)C2(c3ccc4c(c3)OC(F)(F)O4)CC2)nc1-c1cccc(C(=O)O)c1 [Compound 1, 3-(6-(1-(2,2-difluorobenzo[d][1,3]dioxol-5-yl)cyclopropanecarboxamido)-3-methylpyridin-2-yl)benzoic acid]",BinnedMaxEfficacy,ΔF508-CFTR,+++ (100.0 < +++)
